In US20130157285A1, “IDENTIFICATION OF INVASIVE AND SLOW-GROWING TUMORIGENIC CELL SUBSETS IN TUMORS” (The Regents of the University of California, priority 2011, published 2013):

Experiments:
[1] = data obtained from Hyal Corporation, cited from earlier work
[2] = tested on: MDA-MB-231; test: Inhibition of HA probe uptake, confocal imaging; format: cell-based, human; settings: excess HA added either during or prior to addition of HA probe
[3] = Targeting of HA-based probes in response-to-injury model; format: in vivo, rat; settings: radiolabel, magnetic resonance and fluorescence labels
Text: (§1) We evaluated the targeting ability of HA-based probes in several modalities (radiolabel, magnetic resonance, and fluorescence) to areas of microenvironment remodeling that are associated with both tissue injury and tumor formation. We chose well-characterized rat balloon injured carotid arteries as a response to injury model, and xenografts of MDA-MB-231 cells as a tumor model.

[4] = tested on: xenografts of MDA-MB-231 cells; test: Targeting of HA-based probes in tumor model; format: in vivo; settings: radiolabel, magnetic resonance and fluorescence labels
Text: as §1

[5] = tested on: SKBR-3; test: Fluorescent HA probe binding by flow cytometry (FACS); format: cell-based, human
Text: (§2) Simultaneous profiling of cell surface markers and HA binding/uptake required the establishment of a sensitive multiplexed detection method, which could detect both the cell surface receptors and the binding/uptake of ligand (HA). We utilized fluorescence-activated cell sorting (FACS) and established protocols for minimum decoration of cells by antibodies and HA, maximum detection sensitivity at the cell surface, and retained viability/functionality during and after sort. Fluorescent HA probes and antibodies were synthesized and characterized in a panel of human breast cancer cell lines (MDA-MB-231, SUM1315MO2, HS-578T, MDA-MB-468, HCC-1569, BT-20, MCF-10A, S1, T4-2, MCF-7, BT474, SK-BR3, AU565, MDA-MB-361, D920, SK3 [RHAMM−/− and CD44−/− were used as negative controls], and 10T½ [RHAMM+/+ were used as positive controls]). In brief, soluble HA (280,000 dalton) was linked to hydrazide-activated fluorochromes and monoclonal antibodies were directly conjugated to tetrafluorophenyl (TFP) ester activated fluorochromes (Alexa Fluor 647 and sometimes to Alexa Fluor 488) and reacted with the live cells under sterile dark conditions. Four fluorochromes were selected in a manner that provided minimal fluorescent spectral overlaps and maximal brightness for low-expressing markers, which allowed sensitive monitoring of subtle changes in marker expression and HA binding capacity in live cells. Near infrared fluorescence range was selected for HA to extend signal stability during multiple stages of characterizations (Alexa Fluor 647). […] As well, these appeared to non-specifically interact with each other and with cells, which would require extensive characterization and optimization. Therefore, we continued our study using minimally-decorated HA and antibodies by fluorochromes, as described below, and successfully profiled multiple cell surface markers.
(§3) (1) Grow cells to 50% confluence on culture flask; (2) Rinse in Ca^2+-free Hank's Buffered Saline Solution (HBSS/20 mM HEPES, pH 7.3); (3) Harvest cells with non-enzymatic HBSS-based cell dissociation solution; (4) Resuspend in cold and sterile PBS solution that contains Antibiotic, HEPES pH 7.4, Insulin, and Transferrin (PBS/additive solution); (5) Centrifuge and eliminate supernatant; (6) Wash in cold PBS/additive solution; (7) Count cells using cell counter instrument and measure viability; (8) Treat cells (in suspension) with Alexa Flour 647-HA; (9) Incubate for 45 min on ice, in dark.
(§4) For single-color HA-binding flow cytometry: (a) wash the cells, eliminate supernatant and adjust concentration of solution appropriate for flow cytometry and (b) perform live cell flow cytometry immediately.
(§5) Cells were grown to 50%-70% confluence in 75 cm^2 culture flasks in DMEM supplemented with 10% FCS at 37° C. and 5% CO2, then subcultured every 3-4 days. For HA uptake experiments, cells were grown to 50% subconfluence, which was achieved 12-20 hrs after subculture, in order to maximize RHAMM surface display. Cells were rinsed in Ca++-free Hanks Buffered Saline (HBSS) solution/20 mM HEPES, pH 7.3, and removed from the substratum by incubating in non-enzymatic HBSS-based solution (Sigma-Aldrich[H-6648]) for 2-3 min, which preserves cell surface epitopes (Veiseh M, et al, Biomacromolecules 2012, Hamilton S. R. et al, JBC, 2007). Viablity of cells was assessed using a Vi_CELL cell analyzer.
(§6) 0.2 ml of soluble HA (1% HA, MWav=280,000 dalton) was activated in 1 ml of a (0.0028 g/1 ml MES) N-(3-Dimethylaminopropyl)-N′-ethylcarbodiimide hydrochloride (EDAC) solution (Sigma-Aldrich) in 4-morpholineethanesulfonic acid (MES) (20 mM, pH 4.5, Sigma-Aldrich), and the resulting solution was reacted with 0.3 ml of A^647-HA hydrazide, tris(triethylammonium) salt (Invitrogen, 1 mg/ml in H2O) in the dark at RT. The solution was covered in aluminum foil and placed on a rocker for 12 hrs at room temperature. […]

[6] = tested on: T4-2; test: as above; format: cell-based, human
Text: as §2, §3, §4, §5, §6

[7] = tested on: MCF-10A; test: as above; format: cell-based, human; settings: Table 1, HA probe binding/uptake
Text: as §2, §3, §4, §5, §6

[8] = tested on: MCF-7; test: as above; format: cell-based, human; settings: Table 1, HA probe binding/uptake
Text: as §2, §3, §4, §5, §6

[9] = tested on: S1; test: as above; format: cell-based, human; settings: Table 1; SI (S1); HA probe binding/uptake
Text: as §2, §3, §4, §5, §6

[10] = tested on: MDA-MB-231; test: as above; format: cell-based, human
Text: as §2, §3, §4, §5, §6

[11] = tested on: MDA-MB-231 tumor cells; test: Extravasation efficiency in chick chorioallantoic membrane (CAM); format: in vivo, chicken embryos; settings: 24 hrs after injection into CAM vein; cells pre-treated with HA for 1 hour on ice
Protocol: Fertilized chicken eggs were incubated in a rotary incubator at 37° C. with 90% humidity for 4 days before being removed from the shell and placed in covered dishes and incubated at 37° C. with 90% humidity until usage (PMID:20671724). On day 13 of embryonic development, 7.5×10^4 tumor cells in 100 μL PBS were intravenously injected into a vein within the chorioallantoic membrane (CAM, N=5 each group) (PMID-20671724). Prior to injection, cancer cells were pre-treated with HA (100 mg/ml) or vehicle (PBS) for 1 hour on ice. […] At least 200 cells for each ROI at T=0 was analyzed and enumerated.
Extravasated tumor cells can be observed in interstitial spaces 24-72 hrs after their injection into CAM veins but by this time cell bound F-HA is not detectable since it has been metabolized (FIG. 22B). To determine if F-HA promotes extravasation of dt-Tomato expressing tumor cells, we therefore simply measured the number of extravasated tumor cells at varying times after injection with or without unlabeled HA, used at the same concentration and polydispersity as F-HA, with intravial confocal imaging (FIG. 22C-D). […] We next determined if exposing tumor cells to HA increased extravasation, choosing 24 hrs after injection rather than 72 hrs shown in FIG. 22C to reduce the contribution of proliferation to appearance of extravascular tumor colonies. […]

[12] = Table 1, HA probe binding/uptake

HA binding [5, 12]: Low
HA binding level ([5]; Table 6): HA^+
HA binding [6, 12]: High
HA binding level ([6]; Table 6): HA^2+
HA binding [7]: Medium
HA binding [8]: Low
HA binding [9]: Medium
HA binding [10, 12]: Very high
HA binding level ([10]; Table 6): HA^4+
Substance: hyaluronan [HA]
tolerability of HA injected I.V. ([1]; I.V. 1-12 mg/kg): well tolerated
T½ from HA serum levels ([1]; I.V., 1.5 mg/kg dose): 12 h
effect on signal of HA probe uptake [2]: reduced
targeting of HA-based probes to injured tissue [3]: selective targeting
targeting of HA-based probes to tumor tissue [4]: selective targeting
extravasation efficiency of tumor cells exposed to HA vs untreated cells [11]: twice
